Laboratory results reported in article PMC9371589 (Behavioural pharmacology, 2022).

Experiments:
Format in all cases: in vivo, rat
male Sprague-Dawley rats [1] = assay: Rotarod motor coordination; conditions: 10 mg/kg i.p., 30 minutes before test; vehicle 193.6 ± 14.9
male Sprague-Dawley rats [2] = assay: Complete Freund's Adjuvant; conditions: 48 hours after CFA injection (24 hours post-treatment)
male Sprague-Dawley rats [3] = assay: Brennan model of incisional pain
male Sprague-Dawley rats [4] = assay: Gastrointestinal transit of a charcoal meal; conditions: 30 mg/kg; vehicle 0.62 ± 0.02

## CN1C(=O)CN=C(c2ccccc2)c2cc(Cl)ccc21 [Diazepam, diazepam]
Male Sprague-Dawley rats [1]
  time spent on the rotarod: 60.1 ± 23.7 s

## O=C(O)Cc1ccccc1Nc1c(Cl)cccc1Cl [Diclofenac, diclofenac]
Male Sprague-Dawley rats [2]
  effect on edema: decreased edema

## CN1CC[C@]23c4c5ccc(O)c4O[C@H]2[C@@H](O)C=C[C@H]3[C@H]1C5 [morphine]
Male Sprague-Dawley rats [3]; 5 mg/kg s.c. once a day for 7 consecutive days
  effect of daily administration on anti-hyperalgesic effect (tolerance): blunted its effects on hyperalgesia
Male Sprague-Dawley rats [3]; after single s.c. administration
  duration of anti-hyperalgesic effect: < 6 h
Male Sprague-Dawley rats [4]
  relative distance traveled (gastrointestinal transit): 0.22 ± 0.02
